Literature values, collected in US20040228830A1 (Collegium Pharmaceutical, Inc., priority 2003, published 2004).

Columns and labels:
[1] = 200 mg/day
[2] = 75-100 mg/day twice daily for 8 weeks, elderly patients with depression
[3] = metabolism in the liver
[4] = tested on: beta adrenoceptors in rat cortex; conditions: after chronic administration
uptake of dopamine = uptake of dopamine (Homo sapiens, UniProt Q01959)
[5] = intravenous, 10 patients
[6] = after one week of dose escalation
[7] = human, in vivo

Chain of uptake of dopamine (Q01959 whole entry): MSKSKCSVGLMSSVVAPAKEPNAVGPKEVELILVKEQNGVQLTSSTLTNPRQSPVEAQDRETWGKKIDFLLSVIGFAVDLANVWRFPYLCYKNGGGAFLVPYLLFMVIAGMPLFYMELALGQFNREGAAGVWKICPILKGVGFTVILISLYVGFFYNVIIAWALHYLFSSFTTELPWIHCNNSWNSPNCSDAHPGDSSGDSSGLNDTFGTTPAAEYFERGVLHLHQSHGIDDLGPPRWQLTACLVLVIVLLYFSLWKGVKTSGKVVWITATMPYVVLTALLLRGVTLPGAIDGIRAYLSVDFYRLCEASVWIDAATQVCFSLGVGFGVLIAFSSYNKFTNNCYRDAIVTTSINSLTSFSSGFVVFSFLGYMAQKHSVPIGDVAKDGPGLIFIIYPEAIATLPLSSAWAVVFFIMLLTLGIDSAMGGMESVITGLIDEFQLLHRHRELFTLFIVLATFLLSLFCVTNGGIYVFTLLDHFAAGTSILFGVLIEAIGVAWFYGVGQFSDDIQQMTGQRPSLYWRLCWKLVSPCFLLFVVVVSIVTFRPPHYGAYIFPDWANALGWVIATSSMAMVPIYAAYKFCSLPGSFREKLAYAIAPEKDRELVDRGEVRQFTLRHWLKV

CCN(CC)C(=O)C1(c2ccccc2)CC1CN (stereo not shown) [milnacipran, Milnacipran]
antidepressant efficacy versus lower doses [1]: superior to the lower doses | most common dose-related side effect reported by patients (four weeks dose escalation): nausea | pain improvement (twice-a-day administration of immediate release formulation, fibromyalgia): statistically superior to that of placebo treatment | only adverse event reported more frequently for milnacipran recipients than for imipramine recipients [2]: nausea | number of chemically identified metabolites [3]: ten | effect on the number of beta adrenoceptors in rat cortex [4]: does not affect | effect on the uptake of dopamine (uptake of dopamine): does not affect | patients reporting transient nausea [5]: five | most commonly reported reason for discontinuation of treatment because of adverse effects [6]: nausea and vomiting | toxicity in humans [7]: non-toxic
